The values that follow are results of earlier work, collected in US20020122815A1, “Compositions and methods of carbohydrate dosing” (priority 2001, published 2002).

Data set [1] concerns serum glucose levels. The settings on record: compared with glucose or sucrose.
The conditions of data set [2]: in large amounts.
The subject of data set [3] is serum glucose levels. The settings on record: serum glucose response to 50 g carbohydrate as percentage of standard meal (usually 50 g glucose).

With `OC[C@@H](O)[C@@H](O)[C@H](O)[C@H](O)CO` [Mannitol], in the data set with serum glucose levels [1], the “rise in serum glucose” value is “less of a rise in serum glucose than glucose or sucrose”. Further, the adverse effect result in data set [2] was “may cause diarrhea”.

As for `O=C(CO)[C@@H](O)[C@H](O)[C@H](O)CO` [fructose], the “Glycemic Index” value in the data set with serum glucose levels [3] is reported as 23.

Turning to `OC[C@@H](O)[C@@H](O)[C@H](O)[C@@H](O)CO` [sorbitol], the “rise in serum glucose” value with serum glucose levels [1] is listed as “less of a rise in serum glucose than glucose or sucrose”. Moreover, the adverse effect result in data set [2] was “may cause diarrhea”.

With `OC[C@H]1O[C@@](CO)(O[C@H]2O[C@H](CO)[C@@H](O)[C@H](O)[C@H]2O)[C@@H](O)[C@@H]1O` [sucrose], the “Glycemic Index” value in the data set with serum glucose levels [3] is 60-65.
